In patent US20190315806A1, “POLYMYXIN DERIVATIVE, PREPARATION METHOD AND APPLICATION THEREOF” (priority 2016, published 2019):
≈ marks a conversion by molar mass, not a printed value. Where a SMILES comes first, the peptide text is derived from it. Bridges are numbered along the chain shown (N, C = ends). [ ]: non-standard residue; d: D form. The star is where a group is joined. Heptanoyl(6-Me) = CC(C)CCCCC(=O)*; Nonanoyl = CCCCCCCCC(=O)*; X2 = CC[C@H](C)CCCCC(=O)*; Heptanoyl = CCCCCCC(=O)*; Dab = NCC[C@H](N)C(=O)O; Nva = CCC[C@H](N)C(=O)O

Key:
Format in all cases: cell-based
[1] = system: Acinetobacter baumannii ATCC 19606; conditions: ATCC 19606
Method in brief: (§1)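 Compounds were serially diluted twofold in broth, added to dishes, then mixed with molten agar to give 0.03–128 μg/mL final. Strains grown overnight in nutrient, brain heart infusion or HTM broth were diluted and spotted at 10^4 CFU/dot. Plates were incubated at 35° C. for 18–24 hours before MIC reading.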

[2] = system: Escherichia coli ATCC 25922; conditions: ATCC 25922
Method in brief: as §1

[3] = system: Pseudomonas aeruginosa ATCC 27853; conditions: ATCC 27853
Method in brief: as §1

[4] = system: Staphylococcus epidermidis ATCC 12228; conditions: ATCC 12228
Method in brief: as §1

[5] = system: Klebsiella pneumoniae ATCC BAA-2146 (NDM-1); test: Antibacterial activity, MIC by dish double dilution method; conditions: ATCC BAA-2146
Method in brief: as §1

[6] = Nephrotoxicity test, renal cytotoxicity by MTT method; conditions: African green monkey
Procedure: African green monkey kidney cells (Vero cells) were cultured in MEM medium (Hyclone), 10% fetal calf serum (Invitrogen) was added before use, cultured at 37° C. under 5% CO2.
Experiment was carried out using MTT method. After digestion, cells in logarithmic growth phase were counted, then the cells were inoculated in a 96-well culture plate. After incubation for 24 h to be adherent, cells were treated with a concentration gradient of a compound of the invention (e.g., a compound prepared in the Embodiments) and the controls. After 72 h, the culture solution was removed, 100 uL of MTT reagent at a concentration of 0.5 mg/ml was added, the medium was removed after incubating for 3 hours in a 37° C. incubator. Add 150 μL DMSO solvent to each well, mix for 3 min, after which the absorbance at 570 nm (A) was measured with a microplate reader.
Cell viability %=(Adosed cell−Abackground)/(Acontrol cell−Abackground)×100%. The average value of 3 parallel wells was taken for each detection point, and the inhibition curve was drawn to calculate the IC50 value.
The African green monkey kidney cells (Vero cells) used in the experiment were from the Cell Resource Center of the Institute of Basic Medicine, Chinese Academy of Medical Sciences.

MIC A. baumannii ATCC 19606 [1] [µg/mL] | MIC E. coli ATCC 25922 [2] [µg/mL] | MIC P. aeruginosa ATCC 27853 [3] [µg/mL] | MIC S. epidermidis ATCC 12228 [4] [µg/mL] | MIC K. pneumoniae ATCC BAA-2146 (NDM-1) [5] [µg/mL] | SMILES | IC50 at 72 h [6] [µg/mL]
0.5 (≈ 0.425 µM) | 0.5 (≈ 0.425 µM) | 1 (≈ 0.851 µM) | 128 (≈ 109 µM) | 0.5 (≈ 0.425 µM) | CCCCCCC(=O)N[C@@H](CCN)C(=O)N[C@H](C(=O)N[C@@H](CCN)C(=O)N[C@H]1CCNC(=O)[C@H]([C@@H](C)O)NC(=O)[C@H](CCN)NC(=O)[C@H](CCN)NC(=O)[C@H](CC(C)C)NC(=O)[C@@H](Cc2ccccc2)NC(=O)[C@H](CCN)NC1=O)[C@@H](C)O [Compound 45, heptanoyl-Dab-Thr-Dab-ring(4-10)[Dab-Dab-D-Phe-Leu-Dab-Dab-Thr]] (Heptanoyl-[Dab]T[Dab][Dab][Dab][dF]L[Dab][Dab]T; lactam 4-C) | 160 ± 13.6 (≈ 136 µM)
1 (≈ 0.831 µM) | 1 (≈ 0.831 µM) | 2 (≈ 1.66 µM) | 32 (≈ 26.6 µM) | 2 (≈ 1.66 µM) | CCCCCCCCC(=O)N[C@@H](CCN)C(=O)N[C@H](C(=O)N[C@@H](CCN)C(=O)N[C@H]1CCNC(=O)[C@H]([C@@H](C)O)NC(=O)[C@H](CCN)NC(=O)[C@H](CCN)NC(=O)[C@H](CC(C)C)NC(=O)[C@@H](Cc2ccccc2)NC(=O)[C@H](CCN)NC1=O)[C@@H](C)O [Compound 46, nonanoyl-Dab-Thr-Dab-ring(4-10)[Dab-Dab-D-Phe-Leu-Dab-Dab-Thr]] (Nonanoyl-[Dab]T[Dab][Dab][Dab][dF]L[Dab][Dab]T; lactam 4-C) | 33.1 ± 2.64 (≈ 27.5 µM)
1 (≈ 0.831 µM) | 1 (≈ 0.831 µM) | 2 (≈ 1.66 µM) | 128 (≈ 106 µM) | 1 (≈ 0.831 µM) | CC[C@H](C)CCCCC(=O)N[C@@H](CCN)C(=O)N[C@H](C(=O)N[C@@H](CCN)C(=O)N[C@H]1CCNC(=O)[C@H]([C@@H](C)O)NC(=O)[C@H](CCN)NC(=O)[C@H](CCN)NC(=O)[C@H]([C@@H](C)CC)NC(=O)[C@@H](Cc2ccccc2)NC(=O)[C@H](CCN)NC1=O)[C@@H](C)O [Compound 47, (S)-6-methyloctanoyl-Dab-Thr-Dab-ring(4-10)[Dab-Dab-D-Phe-Ile-Dab-Dab-Thr]] (X2-[Dab]T[Dab][Dab][Dab][dF]I[Dab][Dab]T; lactam 4-C) | 74.7 ± 6.13 (≈ 62.1 µM)
0.06 (≈ 0.0524 µM) | 0.12 (≈ 0.105 µM) | 2 (≈ 1.75 µM) | >128 | 0.5 (≈ 0.437 µM) | CC[C@H](C)CCCCC(=O)N[C@@H](CCN)C(=O)N[C@H](C(=O)N[C@H](CO)C(=O)N[C@H]1CCNC(=O)[C@H]([C@@H](C)O)NC(=O)[C@H](CCN)NC(=O)[C@H](CCN)NC(=O)[C@H]([C@@H](C)O)NC(=O)[C@@H](CC(C)C)NC(=O)[C@H](CCN)NC1=O)[C@@H](C)O [Compound 58, (S)-6-methyloctanoyl-Dab-Thr-D-Ser-ring(4-10)[Dab-Dab-D-Leu-Thr-Dab-Dab-Thr]] (X2-[Dab]T[dS][Dab][Dab][dL]T[Dab][Dab]T; lactam 4-C) | 189 ± 11.3 (≈ 165 µM)
0.12 (≈ 0.106 µM) | 0.25 (≈ 0.221 µM) | 2 (≈ 1.77 µM) | >128 | 0.5 (≈ 0.442 µM) | CC(C)CCCCC(=O)N[C@@H](CCN)C(=O)N[C@H](C(=O)N[C@H](CO)C(=O)N[C@H]1CCNC(=O)[C@H]([C@@H](C)O)NC(=O)[C@H](CCN)NC(=O)[C@H](CCN)NC(=O)[C@H]([C@@H](C)O)NC(=O)[C@@H](CC(C)C)NC(=O)[C@H](CCN)NC1=O)[C@@H](C)O [Compound 59, 6-methylheptanoyl-Dab-Thr-D-Ser-ring(4-10)[Dab-Dab-D-Leu-Thr-Dab-Dab-Thr]] ({Heptanoyl(6-Me)}-[Dab]T[dS][Dab][Dab][dL]T[Dab][Dab]T; lactam 4-C) | 318 ± 25.6 (≈ 281 µM)
1 (≈ 0.855 µM) | 1 (≈ 0.855 µM) | 2 (≈ 1.71 µM) | 128 (≈ 109 µM) | 1 (≈ 0.855 µM) | CC[C@H](C)CCCCC(=O)N[C@@H](CCN)C(=O)N[C@H](C(=O)N[C@@H](CCN)C(=O)N[C@H]1CCNC(=O)[C@H]([C@@H](C)O)NC(=O)[C@H](CCN)NC(=O)[C@H](CCN)NC(=O)[C@H]([C@@H](C)CC)NC(=O)[C@@H](CC(C)C)NC(=O)[C@H](CCN)NC1=O)[C@@H](C)O [Compound 71, (S)-6-methyloctanoyl-Dab-Thr-Dab-ring(4-10)[Dab-Dab-D-Leu-Ile-Dab-Dab-Thr]] (X2-[Dab]T[Dab][Dab][Dab][dL]I[Dab][Dab]T; lactam 4-C) | 176 ± 14.7 (≈ 151 µM)
0.5 (≈ 0.433 µM) | 0.5 (≈ 0.433 µM) | 2 (≈ 1.73 µM) | 128 (≈ 111 µM) | 0.5 (≈ 0.433 µM) | CC[C@H](C)CCCCC(=O)N[C@@H](CCN)C(=O)N[C@H](C(=O)N[C@@H](CCN)C(=O)N[C@H]1CCNC(=O)[C@H]([C@@H](C)O)NC(=O)[C@H](CCN)NC(=O)[C@H](CCN)NC(=O)[C@H](C(C)C)NC(=O)[C@@H](CC(C)C)NC(=O)[C@H](CCN)NC1=O)[C@@H](C)O [Compound 72, (S)-6-methyloctanoyl-Dab-Thr-Dab-ring(4-10)[Dab-Dab-D-Leu-Val-Dab-Dab-Thr]] (X2-[Dab]T[Dab][Dab][Dab][dL]V[Dab][Dab]T; lactam 4-C) | 131 ± 8.69 (≈ 113 µM)
1 (≈ 0.865 µM) | 1 (≈ 0.865 µM) | 1 (≈ 0.865 µM) | 128 (≈ 111 µM) | 1 (≈ 0.865 µM) | CCC[C@@H]1NC(=O)[C@@H](CC(C)C)NC(=O)[C@H](CCN)NC(=O)[C@@H](NC(=O)[C@H](CCN)NC(=O)[C@@H](NC(=O)[C@H](CCN)NC(=O)CCCC[C@@H](C)CC)[C@@H](C)O)CCNC(=O)[C@H]([C@@H](C)O)NC(=O)[C@H](CCN)NC(=O)[C@H](CCN)NC1=O [Compound 73, (S)-6-methyloctanoyl-Dab-Thr-Dab-ring(4-10)[Dab-Dab-D-Leu-Nva-Dab-Dab-Thr]] (X2-[Dab]T[Dab][Dab][Dab][dL][Nva][Dab][Dab]T; lactam 4-C) | 108 ± 9.16 (≈ 93.9 µM)
1 (≈ 0.865 µM) | 1 (≈ 0.865 µM) | 2 (≈ 1.73 µM) | 128 (≈ 111 µM) | 1 (≈ 0.865 µM) | CC[C@H](C)[C@@H]1NC(=O)[C@@H](CC(C)C)NC(=O)[C@H](CCN)NC(=O)[C@@H](NC(=O)[C@H](CCN)NC(=O)[C@@H](NC(=O)[C@H](CCN)NC(=O)CCCCC(C)C)[C@@H](C)O)CCNC(=O)[C@H]([C@@H](C)O)NC(=O)[C@H](CCN)NC(=O)[C@H](CCN)NC1=O [Compound 75, 6-methylheptanoyl-Dab-Thr-Dab-ring(4-10)[Dab-Dab-D-Leu-Ile-Dab-Dab-Thr]] ({Heptanoyl(6-Me)}-[Dab]T[Dab][Dab][Dab][dL]I[Dab][Dab]T; lactam 4-C) | 199 ± 13.1 (≈ 172 µM)
